pIC50: −log10 of the molar value. Active and inactive are the calls of the source. The rule behind the calls is not given here.
Key:
[1] = Cytotoxicity against monkey LLC-MK2 cells incubated for 72 hrs by MTT assay; format: toxicity, cell-based, Macaca mulatta; settings: rhesus monkey
Leishmania amazonensis [2] = assay: Potency index, ratio of pentamidine IC50 to test compound IC50 for antileishmanial activity against Leishmania amazonensis IFLA/BR/1967/PH8 amastigotes infected in mouse peritoneal macrophage assessed as inhibition of parasite growth pre-infected in cells for 4 hrs followed by compound addition and measured after 24 hrs by Giemsa staining based analysis; format: functional, Peritoneal macrophage cell
Trypanosoma cruzi [3] = assay: (§1) Antitrypanosomal activity against Trypanosoma cruzi Tulahuen lacZ expressing beta-galactosidase amastigotes infected in monkey LLC-MK2 cells assessed as inhibition of amastigotes pre-infected in cells for 48 hrs followed by compound addition and measured after 72 hrs by CPRG reagent based absorbance analysis; format: functional, organism-based
Leishmania amazonensis [4] = assay: Antileishmanial activity against Leishmania amazonensis IFLA/BR/1967/PH8 amastigotes infected in mouse peritoneal macrophage assessed as inhibition of parasite growth pre-infected in cells for 4 hrs followed by compound addition and measured after 24 hrs by Giemsa staining based analysis; format: functional, organism-based; settings: IFLA/BR/1967/PH8, Peritoneal macrophage
[5] = Selectivity index, ratio of CC50 for monkey LLC-MK2 cells to IC50 for Trypanosoma cruzi Tulahuen lacZ expressing beta-galactosidase amastigotes infected monkey LLC-MK2 cells; format: toxicity; settings: read-out: Ratio CC50/IC50
[6] = Selectivity index, ratio of CC50 for cytotoxicity against monkey LLC-MK2 cells to IC50 for antileishmanial activity against Leishmania amazonensis IFLA/BR/1967/PH8 amastigotes infected in mouse peritoneal macrophage; format: toxicity, cell-based; settings: read-out: Ratio CC50/IC50
Trypanosoma cruzi [7] = assay: Binding affinity to Trypanosoma cruzi type I nitro reductase at 25 uM incubated for 5 mins in the presence of NADH by microplate reader analysis
Trypanosoma cruzi [8] = assay: Effect on infection-mediated heart weight in Trypanosoma cruzi Y strain trypomastigotes infected in BALB/c mouse model at 25 mg/kg/day, po administered for consecutive 10 days; format: functional, organism-based; settings: time 10.0 day
[9] = Toxicity in BALB/c mouse infected with Trypanosoma cruzi Y trypomastigotes assessed as body weight gain at 25 mg/kg/day, po administrated via gavage for consecutive 10 days; format: organism-based; settings: in vivo, 240 h, time 10 day
Trypanosoma cruzi [10] = assay: (§2) Antitrypanosomal activity against Trypanosoma cruzi Y trypomastigotes infected in BALB/c mouse model assessed as reduction of parasitemia level at 25 mg/kg/day, po administered via gavage observed on 7 day of post infection relative to control; format: functional; parameters: scale not given: the % may be the effect or the level left
Trypanosoma cruzi [11] = assay: Antitrypanosomal activity against Trypanosoma cruzi Y trypomastigotes infected in BALB/c mouse model assessed as reduction of parasitemia level at 25 mg/kg/day, po administered via gavage administrated for consecutive 10 days and measured on day 11; format: functional, organism-based; settings: time 11.0 day
Trypanosoma cruzi [12] = assay: Antitrypanosomal activity against Trypanosoma cruzi Y strain trypomastigotes infection induced hepatosplenomegaly BALB/c male mouse model assessed as change in infection-mediated liver weight at 25 mg/kg/day, po administrated for consecutive 10 days; format: functional, organism-based; settings: time 10.0 day
Trypanosoma cruzi [13] = assay: as §2, with “parasite load in cardiac tissue by measuring reduction in DNA copy number” for “parasitemia level”, “11” for “7”, “infection by qPCR analysis” for “infection”; format: functional; parameters: scale not given: the % may be the effect or the level left
Trypanosoma cruzi [14] = assay: Binding affinity to Trypanosoma cruzi type I nitro reductase at 10 uM incubated for 5 mins in the presence of NADH by microplate reader analysis
[15] = Toxicity in BALB/c mouse infected with Trypanosoma cruzi Y trypomastigotes assessed as animal survival at 25 mg/kg/day, po administrated via gavage for consecutive 10 days relative to control; format: organism-based; settings: in vivo, time 10 day
Trypanosoma cruzi [16] = assay: Antitrypanosomal activity against Trypanosoma cruzi Y strain trypomastigotes infection induced hepatosplenomegaly BALB/c male mouse model assessed as change in infection-mediated spleen weight at 25 mg/kg/day, po administrated for consecutive 10 days; format: functional, organism-based; settings: time 10.0 day
Trypanosoma cruzi [17] = assay: Antitrypanosomal activity against Trypanosoma cruzi Y trypomastigotes infected in BALB/c mouse model assessed as reduction of parasitemia level at 25 mg/kg/day, po administered via gavage for consecutive 10 days and measured on day 5,7,9 and 11; format: functional, organism-based; settings: time 11.0 day
Trypanosoma cruzi [18] = assay: as §1, with “Potency index, ratio of benznidazole IC50 to test compound IC50 for antitrypanosomal” for “Antitrypanosomal”; format: functional
[19] = Toxicity in BALB/c mouse infected with Trypanosoma cruzi Y trypomastigotes assessed as body weight loss at 25 mg/kg/day, po administrated via gavage for consecutive 10 days; format: organism-based; settings: in vivo, 240 h, time 10 day
[20] = Toxicity in BALB/c mouse infected with Trypanosoma cruzi Y trypomastigotes assessed as animal survival at 25 mg/kg/day, po administrated via gavage for consecutive 10 days; format: organism-based; settings: in vivo, 240 h, time 10 day
[21] = Toxicity in BALB/c mouse infected with Trypanosoma cruzi Y trypomastigotes assessed as body weight gain at 100 mg/kg/day, po administrated via gavage for consecutive 10 days; format: organism-based; settings: in vivo, 240 h, time 10 day
Trypanosoma cruzi [22] = assay: Antitrypanosomal activity against Trypanosoma cruzi Y trypomastigotes infected in BALB/c mouse model assessed as reduction of parasite load in cardiac tissue by measuring reduction in DNA copy number at 25 to 100 mg/kg/day, po administered via gavage observed on 11 day of post infection by qPCR analysis relative to control; format: functional; parameters: scale not given: the % may be the effect or the level left; settings: dose 25-100 mg/kg/day
[23] = Toxicity in BALB/c mouse infected with Trypanosoma cruzi Y trypomastigotes assessed as animal survival at 100 mg/kg/day, po administrated via gavage for consecutive 10 days relative to control; format: organism-based; settings: in vivo, time 10 day
Trypanosoma cruzi [24] = assay: Effect on infection-mediated heart weight in Trypanosoma cruzi Y strain trypomastigotes infected in BALB/c mouse model at 100 mg/kg/day, po administered for consecutive 10 days; format: functional, organism-based; settings: time 10.0 day

SMILES	CC50 at 72 h [1] [µM]	Ratio IC50 (Leishmania amazonensis [2])	pIC50 (Trypanosoma cruzi [3])	pIC50 (Leishmania amazonensis [4])	selectivity ratio [5]	selectivity ratio [6]	Kobs (Trypanosoma cruzi [7]) [s⁻¹]	Kobs (Trypanosoma cruzi [14]) [s⁻¹]	further results
O=[N+]([O-])c1nccn1Cc1cc(-c2ccc(N3CCN(CCO)CC3)cc2)no1	> 50	2.9	5.12	5.25	> 6.7	> 8.8			
Cc1ccc(-c2cc(Cn3ccnc3[N+](=O)[O-])on2)cc1[N+](=O)[O-]	> 50	5.1	4.47	5.48	> 1.5	> 15.3			
CCN1CCN(c2ccc(-c3cc(Cn4ccnc4[N+](=O)[O-])on3)cc2)CC1	> 50		5.80	5.26	> 30.8	> 9	0.48	0.23	Activity (Trypanosoma cruzi [8]): inactive; Activity [9]: Non-Toxic; Activity (Trypanosoma cruzi [10]): 77%; Activity (Trypanosoma cruzi [11]): inactive; Activity (Trypanosoma cruzi [12]): Active; Activity (Trypanosoma cruzi [13]): 73%; survival at 240 h [15]: 100%; Activity (Trypanosoma cruzi [16]): Active
O=[N+]([O-])c1nccn1Cc1cc(-c2ccc(O)cc2)no1	> 50		6.22	4.73	> 87.7	> 2.7	0.68	0.47	Activity (Trypanosoma cruzi [8]): inactive; Activity [9]: Non-Toxic; Activity (Trypanosoma cruzi [17]): inactive; Activity (Trypanosoma cruzi [12]): Active; Ratio IC50 (Trypanosoma cruzi [18]): 12; survival at 240 h [15]: 100%; Activity (Trypanosoma cruzi [16]): Active
CC(C)N1CCN(c2ccc(-c3cc(Cn4ccnc4[N+](=O)[O-])on3)cc2)CC1	> 50	3.5	5.18	5.33	> 7.6	> 10.6			
COc1ccc(-c2cc(Cn3ccnc3[N+](=O)[O-])on2)cc1OC	> 50		6.70	4.71	> 200	> 2.5	0.82	0.57	Activity [19]: Toxic; Activity (Trypanosoma cruzi [8]): inactive; Activity (Trypanosoma cruzi [17]): inactive; Activity [20]: Toxic; Activity (Trypanosoma cruzi [12]): Active; Ratio IC50 (Trypanosoma cruzi [18]): 15; Activity (Trypanosoma cruzi [16]): Active
O=[N+]([O-])c1nccn1Cc1cc(-c2ccc3c(c2)OCO3)no1	> 50	2	5.44	5.08	> 13.8	> 6			
COc1cc(OC)c(Cl)c(-c2cc(Cn3ccnc3[N+](=O)[O-])on2)c1	> 50	7.6	4.92	5.66	> 4.2	> 22.6			
O=[N+]([O-])c1nccn1Cc1cc(-c2ccc(N3CCNCC3)cc2)no1	> 50	6.6	5.33	5.60	> 10.5	> 19.8			
COc1ccc(-c2cc(Cn3ccnc3[N+](=O)[O-])on2)cc1[N+](=O)[O-]	> 50		4.62	4.82	> 2.1	> 3.3	0.57	0.54	
O=[N+]([O-])c1ccc(-c2cc(Cn3ccnc3[N+](=O)[O-])on2)o1	> 50		6.05		> 51		1.27	0.75	Ratio IC50 (Trypanosoma cruzi [18]): 5.4
CN1CCCN(c2ccc(-c3cc(Cn4ccnc4[N+](=O)[O-])on3)cc2)CC1	> 50	7.1	5.80	5.64	> 32	> 21.3			
CN1CCN(c2ccc(-c3cc(Cn4ccnc4[N+](=O)[O-])on3)cc2)CC1	> 50		6.40	4.81	> 125	> 3.2	0.38	0.21	Activity (Trypanosoma cruzi [8]): inactive; Activity [9]: Non-Toxic; Activity (Trypanosoma cruzi [17]): inactive; Activity (Trypanosoma cruzi [12]): Active; Ratio IC50 (Trypanosoma cruzi [18]): 10; survival at 240 h [15]: 100%; Activity (Trypanosoma cruzi [16]): Active
CN(C)c1ccc(-c2cc(Cn3ccnc3[N+](=O)[O-])on2)cc1	> 50		5.64	4.48	> 21.2	> 1.5	0.31	0.24	
O=[N+]([O-])c1nccn1Cc1cc(-c2ccc(N3CCCCCC3)cc2)no1	> 50		5.41	4.60	> 12.8	> 1.9			
O=[N+]([O-])c1nccn1Cc1cc(-c2ccc(Cl)cc2Cl)no1	43.2		5.43	4.47	> 11.4	1.3			
O=C(Cn1ccnc1[N+](=O)[O-])NCc1ccccc1 [BENZNIDAZOLE]	> 50		5.42		> 9.3		0.3	0.13	Activity [21]: Non-Toxic; Activity (Trypanosoma cruzi [8]): inactive; Activity [9]: Non-Toxic; Activity (Trypanosoma cruzi [22]): 99%; survival at 240 h [23]: 100%; Activity (Trypanosoma cruzi [17]): inactive; Activity (Trypanosoma cruzi [12]): Active; survival at 240 h [15]: 100%; Activity (Trypanosoma cruzi [16]): Active; Activity (Trypanosoma cruzi [24]): inactive

Source: ChEMBL document CHEMBL5634085, “Design, synthesis and antitrypanosomatid activity of 2-nitroimidazole-3,5-disubstituted isoxazole compounds based on benznidazole” (Eur J Med Chem, 2023)
